Counter-ions that a name gives are not always drawn.
Target: T1, serotonin transporter (Rattus norvegicus, UniProt P31652)
T1 construct: Cerebral cortices from male Wistar rats (150-200 g) are homogenized; from tissue; host or cells: rat cerebral cortex synaptosomes (P2 pellet)
Assay: In vitro inhibition of 3H-5-hydroxytryptamine (3H-5-HT, serotonin) uptake in cortical synaptosomes
Format: biochemical
Conditions: cortical synaptosomes from male Wistar rats; 3H-5-HT 1 nM; 30 min at 37° C.
Experimental: The activity of the serotonin transporter integral protein can be measured in vitro by synaptosomal uptake of ^3H-5-hydroxytryptamine.
Preparations are performed at 0-4° C. unless otherwise indicated. […] Monoamine oxidase activity will be inhibited in the presence of pargyline. The homogenate is centrifuged at 1000×g for 10 min. The resulting supernatant is then centrifuged at 27,000×g for 50 min and the supernatant is discarded.
Non-specific uptake is determined using citalopram (1 μM, final concentration). After incubation the samples are poured directly onto Whatman GF/C glass fibre filters under suction. The filters are then washed three times with 5 ml of ice-cold 0.9% (w/v) NaCl solution. The amount of radioactivity on the filters is determined by conventional liquid scintillation counting. Specific uptake is calculated as the difference between total uptake and non-specific uptake.

T1 sequence (P31652 whole entry): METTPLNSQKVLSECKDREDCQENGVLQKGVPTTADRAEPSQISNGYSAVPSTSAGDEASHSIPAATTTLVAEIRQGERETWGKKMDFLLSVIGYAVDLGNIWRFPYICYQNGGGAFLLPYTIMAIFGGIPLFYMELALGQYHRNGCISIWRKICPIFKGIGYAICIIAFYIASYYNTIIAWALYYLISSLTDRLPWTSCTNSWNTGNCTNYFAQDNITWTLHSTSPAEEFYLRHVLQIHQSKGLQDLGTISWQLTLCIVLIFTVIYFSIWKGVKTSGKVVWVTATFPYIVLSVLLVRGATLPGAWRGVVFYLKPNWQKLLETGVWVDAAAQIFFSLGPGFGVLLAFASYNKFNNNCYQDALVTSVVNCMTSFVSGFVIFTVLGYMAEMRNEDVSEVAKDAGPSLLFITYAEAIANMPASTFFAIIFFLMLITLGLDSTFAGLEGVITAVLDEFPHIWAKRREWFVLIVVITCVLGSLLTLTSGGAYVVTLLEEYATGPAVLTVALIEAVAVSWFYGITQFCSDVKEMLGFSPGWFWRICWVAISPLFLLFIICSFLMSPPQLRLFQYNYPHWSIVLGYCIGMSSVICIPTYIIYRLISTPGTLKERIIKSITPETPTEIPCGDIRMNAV

| SMILES | IC50 [nM] |
| --- | --- |
| O=[N+]([O-])c1ccc2nc(N3CC4CC(CN(Cc5ccccc5)C4)C3)ccc2c1 [Compound C6, 3-Benzyl-7-(6-nitro-2-quinolinyl)-3,7-diazabicyclo-[3.3.1]-nonane] | 5.7 |
| c1ccc(CN2CC3CC(C2)CN(c2ccc4ccccc4n2)C3)cc1 [Compound C3, 3-Benzyl-7-(2-quinolinyl)-3,7-diazabicyclo-[3.3.1]-nonane] | 22 |

Target: T2, nAChRs comprised of α4 and β2 subunits (Rattus norvegicus, UniProt P09483+P12390)
T2 construct: Cerebral corticies from male Wistar rats (150-250 g) are homogenized; from tissue; host or cells: rat cerebral cortex membrane homogenate
T2 sequence (P12390 25-500): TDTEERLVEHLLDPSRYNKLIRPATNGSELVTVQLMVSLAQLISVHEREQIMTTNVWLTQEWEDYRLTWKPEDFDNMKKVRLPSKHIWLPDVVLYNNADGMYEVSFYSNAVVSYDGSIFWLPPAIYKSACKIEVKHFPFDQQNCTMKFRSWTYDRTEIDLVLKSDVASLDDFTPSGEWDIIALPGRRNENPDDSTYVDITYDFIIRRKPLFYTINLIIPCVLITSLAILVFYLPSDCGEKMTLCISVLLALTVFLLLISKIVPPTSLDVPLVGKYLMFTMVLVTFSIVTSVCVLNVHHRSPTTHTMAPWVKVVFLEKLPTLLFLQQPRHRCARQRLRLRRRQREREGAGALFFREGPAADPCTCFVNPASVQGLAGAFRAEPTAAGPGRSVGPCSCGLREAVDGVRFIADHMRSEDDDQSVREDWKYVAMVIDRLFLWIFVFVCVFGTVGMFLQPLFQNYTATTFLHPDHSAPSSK
T2 sequence (P09483 31-630): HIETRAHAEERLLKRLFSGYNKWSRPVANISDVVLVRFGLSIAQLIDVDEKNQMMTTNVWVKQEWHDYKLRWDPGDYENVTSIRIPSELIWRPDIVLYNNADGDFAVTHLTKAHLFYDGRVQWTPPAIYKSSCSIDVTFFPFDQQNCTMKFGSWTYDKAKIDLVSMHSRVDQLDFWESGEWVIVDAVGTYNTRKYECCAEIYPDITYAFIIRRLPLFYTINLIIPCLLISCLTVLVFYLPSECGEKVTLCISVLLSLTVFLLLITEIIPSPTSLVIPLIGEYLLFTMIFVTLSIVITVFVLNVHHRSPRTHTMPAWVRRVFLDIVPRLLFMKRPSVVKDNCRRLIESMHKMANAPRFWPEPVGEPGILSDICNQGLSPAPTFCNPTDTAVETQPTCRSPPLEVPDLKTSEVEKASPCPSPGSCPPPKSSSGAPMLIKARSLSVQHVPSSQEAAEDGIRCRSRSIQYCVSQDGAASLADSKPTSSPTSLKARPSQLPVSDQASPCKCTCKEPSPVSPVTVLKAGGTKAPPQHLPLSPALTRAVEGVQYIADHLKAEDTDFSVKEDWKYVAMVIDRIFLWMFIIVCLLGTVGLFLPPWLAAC
Assay: In vitro inhibition of 3H-cytisine binding
Conditions: cerebral cortex homogenate from male Wistar rats; 3H-cytisine 1 nM; 90 min at 2° C.
Experimental: The predominant subtype with high affinity for nicotine is comprised of α4 and β2 subunits. nAChRs of the latter type can selectively be labelled by the nicotine agonist ^3H-cytisine.
Cerebral corticies from male Wistar rats (150-250 g) are homogenized for 20 sec in 15 ml Tris, HCl (50 mM, pH 7.4) containing 120 mM NaCl, 5 mM KCl, 1 mM MgCl2 and 2.5 mM CaCl2 using an Ultra-Turrax homogenizer. The homogenate is centrifuged at 27,000×g for 10 min. The supernatant is discarded and the pellet is resuspended in fresh buffer and centrifuged a second time. The final pellet is resuspended in fresh buffer (35 ml per g of original tissue) and used for binding assays.
Aliquots of 500 μl homogenate are added to 25 μl of test solution and 25 μl of ^3H-cytisine (1 nM, final concentration), mixed and incubated for 90 min at 2° C. Non-specific binding is determined using (−)-nicotine (100 μM, final concentration). After incubation the samples are added 5 ml of ice-cold buffer and poured directly onto Whatman GF/C glass fibre filters under suction and immediately washed with 2×5 ml ice-cold buffer. The amount of radioactivity on the filters is determined by conventional liquid scintillation counting. Specific binding is total binding minus non-specific binding.

| SMILES | IC50 [nM] |
| --- | --- |
| Clc1cncc(N2CC3CNCC(C3)C2)n1 [Compound F2, 3-H-7-(6-Chloro-2-pyrazinyl)-3,7-diazabicyclo-[3.3.1]-nonane] | 3.4 |
| Clc1ccc(N2CC3CNCC(C3)C2)nn1 [Compound F1, 3-H-7-(6-Chloro-3-pyridazinyl)-3,7-diazabicyclo-[3.3.1]-nonane] | 3 |

System: not given
Assay: not given
Conditions: not given

| melting point [°C] | SMILES |
| --- | --- |
| 183.5 to 187.6 | C=CCN1CC2CC(C1)CN(c1ccc(-c3ccccc3)nn1)C2 (as salt: fumaric acid salt) |
| 213.9 to 220.8 | CN1CC2CC(C1)CN(c1ccc(-c3ccccc3)nn1)C2 (as salt: fumaric acid salt) |
| 204 to 205 | Clc1ccc(N2CC3CC(CN(Cc4ccccc4)C3)C2)nn1 (as salt: fumaric acid salt) |
| 183.1 to 183.3 | Clc1cncc(N2CC3CC(CN(Cc4ccccc4)C3)C2)n1 (as salt: fumaric acid salt) |
| 168 to 172 | O=[N+]([O-])c1ccc2nc(N3CC4CC(CN(Cc5ccccc5)C4)C3)ccc2c1 (as salt: fumaric acid salt) [Compound C6, 3-Benzyl-7-(6-nitro-2-quinolinyl)-3,7-diazabicyclo-[3.3.1]-nonane] |

| SMILES | melting point [°C] |
| --- | --- |
| Clc1cncc(N2CC3CNCC(C3)C2)n1 (as salt: fumaric acid salt) [Compound F2, 3-H-7-(6-Chloro-2-pyrazinyl)-3,7-diazabicyclo-[3.3.1]-nonane] | 180.3 to 181.9 |
| Clc1ccc(N2CC3CNCC(C3)C2)nn1 (as salt: fumaric acid salt) [Compound F1, 3-H-7-(6-Chloro-3-pyridazinyl)-3,7-diazabicyclo-[3.3.1]-nonane] | 195.5 to 196.5 |
| c1ccc(CN2CC3CC(C2)CN(c2ccc4ccccc4n2)C3)cc1 (as salt: fumaric acid salt) [Compound C3, 3-Benzyl-7-(2-quinolinyl)-3,7-diazabicyclo-[3.3.1]-nonane] | 56.1 to 56.8 |

Reference: patent US20040147505A1, “Novel heteroaryl-diazabicyclo alkanes as cns-modulators” (priority 2001, published 2004)
